Among the data in US20230141600A1, “IMIDAZOPYRAZINE DERIVATIVES” (priority 2020, published 2023) are IC90 values, retold here.

SMILES strings stand for the structures.

The test system of one assay is Acinetobacter baumannii ATCC17961. Briefly: 90% growth inhibitory concentration (IC90) determination, antimicrobial susceptibility testing. It is filed as cell-based. Conditions: 90% growth inhibition, Iso-Sensitest broth, OD 600 nm over 16 h, 35±2° C.; read-out: ATCC 17961 IC90. How it is done:
Antimicrobial Susceptibility Testing:
90% Growth Inhibitory Concentration (IC90) Determination
The in vitro antimicrobial activity of the compounds was determined according to the following procedure:
The assay used a 10-points Iso-Sensitest broth medium to measure quantitatively the in vitro activity of the compounds against Acinetobacter baumannii ATCC17961 and ATCC17978.
Stock compounds in DMSO were serially twofold diluted (e.g. range from 50 to 0.097 μM final concentration) in 384 wells microtiter plates and inoculated with 49 μl the bacterial suspension in Iso-Sensitest medium to have a final cell concentration of ˜5×10^(5) CFU/ml in a final volume/well of 50 ul/well. Microtiter plates were incubated at 35±2° C.
Bacterial cell growth was determined with the measurement of optical density at λ=600 nm each minutes over a time course of 16 h. Growth inhibition was calculated during the logarithmic growth of the bacterial cells with determination of the concentration inhibiting 50% (IC50) and 90% (IC90) of the growth.
Table 2 provides the 90% growth inhibitory concentrations (IC90) in micromoles per liter of the compounds of present invention obtained against the strain Acinetobacter baumannii ATCC17961.
The term IC90 denotes the concentration needed for an effect of 90%. Regarding `CCc1cc(Nc2nccn3c(-c4ccc(OC(F)F)c(F)c4F)cnc23)ccc1C(=O)NCCC1CC[N+](C)(CC2CNC2)CC1` (stereo not drawn) [Example 91, N-[2-[1-(azetidin-3-ylmethyl)-1-methyl-piperidin-1-ium-4-ylethyl]-4-[[3-[4-(difluoromethoxy)-2,3-difluoro-phenyl]imidazo[1,2-a]pyrazin-8-yl]amino]-2-ethyl-benzamide Diformate], the IC90 worked out at 834 nM.

The assay is the same for the next values; noted with them: Acinetobacter baumannii, ATCC17961, 16 h, 90% growth inhibition, Iso-Sensitest broth, OD 600 nm over 16 h, 35±2° C.; read-out: ATCC 17961 IC90.
As to `CCc1cc(Nc2nccn3c(-c4ccc(OC(F)F)c(F)c4F)cnc23)ccc1C(=O)N1CCN(C(=O)C2CC[N+](C)(CC3CNC3)CC2)CC1` (stereo not drawn) [Example 81, 1-(Azetidin-3-ylmethyl)-4-(4-(4-((3-(4-(difluoromethoxy)-2,3-difluorophenyl)imidazo[1,2-a]pyrazin-8-yl)amino)-2-ethylbenzoyl)piperazine-1-carbonyl)-1-methylpiperidin-1-ium 2,2,2-trifluoroacetate], the IC90 is 107 nM.
Same read-out and setting: the result for `CCc1cc(Nc2nccn3c(-c4ccc(OC(F)F)c(F)c4F)cnc23)ccc1C(=O)N1CCN(C(=O)C2CC[N+](C)(CCN)CC2)CC1` (stereo not drawn) [Example 83, [4-[1-(2-aminoethyl)-1-methyl-piperidin-1-ium-4-carbonyl]piperazin-1-yl]-[4-[[3-[4-(difluoromethoxy)-2,3-difluoro-phenyl]imidazo[1,2-a]pyrazin-8-yl]amino]-2-ethyl-phenyl]methanone bis(2,2,2-trifluoroacetate)] reads 127 nM.
In the case of `CCc1cc(Nc2nccn3c(-c4ccc(OC(F)F)c(F)c4F)cnc23)ccc1C(=O)N1CCN(C(=O)C2CC[N+](C)(CC3CCNC3)CC2)CC1` (stereo not drawn) [Example 84, [4-[[3-[4-(difluoromethoxy)-2,3-difluoro-phenyl]imidazo[1,2-a]pyrazin-8-yl]amino]-2-ethyl-phenyl]-[4-[1-methyl-1-(pyrrolidin-3-ylmethyl)piperidin-1-ium-4-carbonyl]piperazin-1-yl]methanone bis(2,2,2-trifluoroacetate)], the IC90 amounted to 132 nM.
With `CCc1cc(Nc2nccn3c(-c4ccc(OC(F)F)c(F)c4F)cnc23)ccc1C(=O)N1CCN(C(=O)C2CC[N+](C)(CCNC)CC2)CC1` (stereo not drawn) [Example 85, [4-[[3-[4-(difluoromethoxy)-2,3-difluoro-phenyl]imidazo[1,2-a]pyrazin-8-yl]amino]-2-ethyl-phenyl]-[4-[1-methyl-1-[2-(methylamino)ethyl]piperidin-1-ium-4-carbonyl]piperazin-1-yl]methanone bis(2,2,2-trifluoroacetate)], the IC90 was found to be 147 nM.
On the same count and under the same terms, the value for `CCc1cc(Nc2nccn3c(-c4ccc(OC(F)F)c(F)c4F)cnc23)ccc1C(=O)N1CCN(C(=O)C2CC[N+](C)(CC34CC(N)(C3)C4)CC2)CC1` (stereo not drawn) [Example 86, [4-[1-[(3-amino-1-bicyclo[1.1.1]pentanyl)methyl]-1-methyl-piperidin-1-ium-4-carbonyl]piperazin-1-yl]-[4-[[3-[4-(difluoromethoxy)-2,3-difluoro-phenyl]imidazo[1,2-a]pyrazin-8-yl]amino]-2-ethyl-phenyl]methanone bis(2,2,2-trifluoroacetate)] was 168 nM; that for `CCc1cc(Nc2nccn3c(-c4ccc(OC(F)F)c(F)c4F)cnc23)ccc1C(=O)NCC1CC[N+](C)(CC2CNC2)C1` (stereo not drawn) [Example 88, N-[[1-(azetidin-3-ylmethyl)-1-methyl-pyrrolidin-1-ium-3-yl]methyl]-4-[[3-[4-(difluoromethoxy)-2,3-difluoro-phenyl]imidazo[1,2-a]pyrazin-8-yl]amino]-2-ethyl-benzamide bis(2,2,2-trifluoroacetate)] was 485 nM.
The same measure, in the same setting: the result for `CCc1cc(Nc2nccn3c(-c4ccc(OC(F)F)c(F)c4F)cnc23)ccc1C(=O)NCCCCC[N+](C)(CC1CNC1)CC1CNC1` [Example 89, Bis(azetidin-3-ylmethyl)-[5-[[4-[[3-[4-(difluoromethoxy)-2,3-difluoro-phenyl]imidazo[1,2-a]pyrazin-8-yl]amino]-2-ethyl-benzoyl]amino]pentyl]-methyl-ammonium bis(2,2,2-trifluoroacetate)] reads 634 nM; that for `CCc1cc(Nc2nccn3c(-c4ccc(OC(F)F)c(F)c4F)cnc23)ccc1C(=O)NCCC(=O)N1CC[N+](C)(CC2CNC2)CC1` [Example 92, N-[3-[4-(Azetidin-3-ylmethyl)-4-methyl-piperazin-4-ium-1-yl]-3-oxo-propyl]-4-[[3-[4-(difluoromethoxy)-2,3-difluoro-phenyl]imidazo[1,2-a]pyrazin-8-yl]amino]-2-ethyl-benzamide bis(2,2,2-trifluoroacetate)], 332 nM; that for `CCc1cc(Nc2nccn3c(-c4ccc(OC(F)F)c(F)c4F)cnc23)ccc1C(=O)N1CCN(C(=O)C2CC[N+](C)(CC3CNC3)CC2)CC1C(=O)OC` (stereo not drawn) [Example 93, Methyl 4-[1-(azetidin-3-ylmethyl)-1-methyl-piperidin-1-ium-4-carbonyl]-1-[4-[[3-[4-(difluoromethoxy)-2,3-difluoro-phenyl]imidazo[1,2-a]pyrazin-8-yl]amino]-2-ethyl-benzoyl]piperazine-2-carboxylate bis(2,2,2-trifluoroacetate)], 909 nM.
With `CCc1cc(Nc2nccn3c(-c4ccc(OC(F)F)c(F)c4F)cnc23)ccc1C(=O)N1CCN(C(=O)C2CC[N+](C)(CC3CNC3)CC2)C(C(=O)OC)C1` (stereo not drawn) [Example 94, methyl 1-[1-(azetidin-3-ylmethyl)-1-methyl-piperidin-1-ium-4-carbonyl]-4-[4-[[3-[4-(difluoromethoxy)-2,3-difluoro-phenyl]imidazo[1,2-a]pyrazin-8-yl]amino]-2-ethyl-benzoyl]piperazine-2-carboxylate tris(2,2,2-trifluoroacetate)], the 90% effect concentration (IC90) was found to be 457 nM.
Take `CCc1cc(Nc2nccn3c(-c4ccc(OC(F)F)c(F)c4F)cnc23)ccc1C(=O)N1CC2(C1)CN(C(=O)C1CC[N+](C)(CC3CCNC3)CC1)C2` (stereo not drawn) [Example 95, [4-[[3-[4-(difluoromethoxy)-2,3-difluoro-phenyl]imidazo[1,2-a]pyrazin-8-yl]amino]-2-ethyl-phenyl]-[2-[1-methyl-1-(pyrrolidin-3-ylmethyl)piperidin-1-ium-4-carbonyl]-2,6-diazaspiro[3.3]heptan-6-yl]methanone bis(2,2,2-trifluoroacetate)]: the 90% effect concentration (IC90) worked out at 725 nM.
`CCc1cc(Nc2nccn3c(-c4ccc(OC(F)F)c(F)c4F)cnc23)ccc1C(=O)NCCCCC[N+](C)(C)CC1CNC1` [Example 96, Azetidin-3-ylmethyl-[5-[[4-[[3-[4-(difluoromethoxy)-2,3-difluoro-phenyl]imidazo[1,2-a]pyrazin-8-yl]amino]-2-ethyl-benzoyl]amino]pentyl]-dimethyl-ammonium bis(2,2,2-trifluoroacetate)]: the 90% effect concentration (IC90) worked out at 171 nM.
In the case of `CCc1cc(Nc2nccn3c(-c4ccc(OC(F)F)c(F)c4F)cnc23)ccc1C(=O)N1CCC(C(=O)N2CC[N+](C)(CC3CCNC3)CC2)CC1` (stereo not drawn) [Example 97, [4-[[3-[4-(Difluoromethoxy)-2,3-difluoro-phenyl]imidazo[1,2-a]pyrazin-8-yl]amino]-2-ethyl-phenyl]-[4-[4-methyl-4-(pyrrolidin-3-ylmethyl)piperazin-4-ium-1-carbonyl]-1-piperidyl]methanone 2,2,2-trifluoroacetate], the IC90 was 205 nM.
Still for that read-out and setting: the value for `CCc1cc(Nc2nccn3c(-c4ccc(OC(F)F)c(F)c4F)cnc23)ccc1C(=O)NCCNC(=O)C1CC[N+](C)(CC2CCNC2)CC1` (stereo not drawn) [Example 102, N-[2-[[4-[[3-[4-(Difluoromethoxy)-2,3-difluoro-phenyl]imidazo[1,2-a]pyrazin-8-yl]amino]-2-ethyl-benzoyl]amino]ethyl]-1-methyl-1-(pyrrolidin-3-ylmethyl)piperidin-1-ium-4-carboxamide bis(2,2,2-trifluoroacetate)] was 223 nM.

Staying with this assay, now noted: Acinetobacter baumannii, ATCC17961, 16 h, read-out: ATCC 17961 IC90.
On to `CCc1cc(Nc2nccn3c(-c4ccc(OC(F)F)c(F)c4F)cnc23)ccc1C(=O)NCCCNC(=O)C1CC[N+](C)(CC2CCNC2)CC1` (stereo not drawn) [Example 82, N-[3-[[4-[[3-[4-(Difluoromethoxy)-2,3-difluoro-phenyl]imidazo[1,2-a]pyrazin-8-yl]amino]-2-ethyl-benzoyl]amino]propyl]-1-methyl-1-(pyrrolidin-3-ylmethyl)piperidin-1-ium-4-carboxamide bis (2,2,2-trifluoroacetate)], for which the IC90 worked out at 110 nM.
Same read-out and setting: the result for `CCc1cc(Nc2nccn3c(-c4ccc(OC(F)F)c(F)c4F)cnc23)ccc1C(=O)NCC1CC[N+](C)(CC2CNC2)CC1` (stereo not drawn) [Example 87, N-[[1-(azetidin-3-ylmethyl)-1-methyl-piperidin-1-ium-4-yl]methyl]-4-[[3-[4-(difluoromethoxy)-2,3-difluoro-phenyl]imidazo[1,2-a]pyrazin-8-yl]amino]-2-ethyl-benzamide Diformate] reads 318 nM.
Consider `CCc1cc(Nc2nccn3c(-c4ccc(OC(F)F)c(F)c4F)cnc23)ccc1C(=O)NCCC1C[N+](C)(CC2CNC2)C1` (stereo not drawn) [Example 90, N-[2-[1-(azetidin-3-ylmethyl)-1-methyl-azetidin-1-ium-3-yl]ethyl]-4-[[3-[4-(difluoromethoxy)-2,3-difluoro-phenyl]imidazo[1,2-a]pyrazin-8-yl]amino]-2-ethyl-benzamide Diformate], for which the IC90 was determined as 320 nM.
